melting point [°C] | Compound
204 to 206 | O=C(N[C@@H]1C[C@]1(F)c1ccc(Cl)cc1)c1ccccc1C(F)(F)F [Compound 6.004, N-[(1R,2S)-2-(4-chlorophenyl)-2-fluoro-cyclopropyl]-2-trifluoromethyl-benzamide]
127 | Cn1cc(C(=O)NC2CC2c2ccc(Cl)cc2)c(C(F)F)n1 (centres unmarked) [Compound 1.001, 3-difluoromethyl-1-methyl-1H-pyrazole-4-carboxylic acid [2-(4-chlorophenyl)-cyclopropyl]-amide]

— US8618023B2, “Microbiocides” (Syngenta Crop Protection, LLC, priority 2006, dated 2013)
